Results from patent US20240343732A1, “COMPOUNDS FOR DEGRADATION OF CYCLIN-DEPENDENT KINASE 7(CDK7)” (QURIENT CO., LTD., priority 2021, published 2024).

How the values were obtained:
CDK1 = target: T1, CDK1 (Homo sapiens, UniProt P06493); test: Binding assay (FRET, LanthaScreen Eu, Tracer236) for CDK1; conditions: for IC50: read-out: CDK1 IC50 (enzyme binding assay)
T1 construct: His; purchased Invitrogen PR4768C
Description: (§1) Inhibition activity of compound to CDK7 kinase was tested in a binding assay which was applied to the FRET (fluorescence resonance energy transfer) principle from the europium (Eu) donor fluorophore to the acceptor fluorophore on the kinase tracer. Test compounds were made to 1.125 mM of compound solution, and then this compound solution 4-fold serial diluted in 8 steps using an automated liquid handler (JANUS™, PerkinElmer). 80 nL/well of each diluted compound solution was added into the 384-well plate (Greiner, Cat #784075) first and 7.5 ul/well of working solution [5 nM of CDK7/CycH/MNAT1 (Invitrogen, Cat #PR6749B), 4 nM of Biotin anti-His Tag Antibody (Invitrogen, Cat #PV6090), and LanthaScreen® Eu-Streptavidin (Invitrogen, Cat #PV6025)] was added. After mixing the solution well, the same volume with the working solution of Tracer236 (Invitrogen, Cat #PV5592) was added into each well in the plate. The plate was incubated for 60 minutes at room temperature and then all the fluorescence were measured using Envision leader (Perkin Elmer, USA) [Laser as excitation light; […] as the first and the second emission filter]. Data was analysed using XL Fit software.
(§2) All of the synthesized compounds were screened in the above-mentioned assay procedure. To identify the inhibition activity of compounds for other CDKs including CDK1 (Invitrogen, Cat #PR4768C), CDK2 (Invitrogen, Cat #PR4448B) and CDK5 (Invitrogen, Cat #PR8543B) were tested using the same protocol under reasonable concentration of Tracer236 and kinases for each assay. The formula for the assay buffer summarized in below table.

CDK2 = target: T2, CDK2 (Homo sapiens, UniProt P24941); test: Binding assay (FRET, LanthaScreen Eu, Tracer236) for CDK2; conditions: for IC50: read-out: CDK2 IC50 (enzyme binding assay)
T2 construct: His; purchased Invitrogen PR4448B
Description: as §1, §2

CDK5 = target: T3, CDK5 (Homo sapiens, UniProt Q00535); test: Binding assay (FRET, LanthaScreen Eu, Tracer236) for CDK5; conditions: for IC50: read-out: CDK5 IC50 (enzyme binding assay)
T3 construct: His; purchased Invitrogen PR8543B
Description: as §1, §2

CDK7/CycH/MNAT1 = target: T4, CDK7/CycH/MNAT1 (Homo sapiens, UniProt P50613); test: Binding assay (FRET, LanthaScreen Eu, Tracer236) for CDK7; conditions: read-out: CDK7 IC50 (enzyme binding assay)
T4 construct: His; purchased Invitrogen PR6749B
Description: as §1, §2

CDK7 protein = target: T5, CDK7 protein (Homo sapiens, UniProt P50613); test: Western blot assay for CDK7 protein degradation in A2780 cells; format: cell-based; conditions: 24 hours, read-out: Compound concentration that caused 50% CDK7 protein degradation in A2780 cells (DC50);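 also: A is DC50 up to 100 nM B is 100 to 1000 nM C is above 1000 nM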
T5 construct: To verify endogenous CDK7 protein degradation; endogenous in cells; host or cells: A2780 (ECACC 93112519)
Description: Human ovarian cancer cell line, A2780 (Cat #93112519) was obtained from ECACC. Cells were grown in RPMI-1640 media (Invitrogen, Cat #22400105) supplemented with 10% FBS (Hyclone, Cat #SH30084.03) and 1% penicillin/streptomycin (Hyclone, Cat #SV30010) and cultured at 37° C., 5% Co2 in a humidified chamber. All cell lines were routinely tested for mycoplasma.
To verify endogenous CDK7 protein degradation upon treatment of CDK7-specific degrader, the western blot assay was conducted a 24 hours' time period. 6×10^5 cells/well of A2780 cells were plated in 6-well plate. After 24 hours, the cells were treated with various concentrations of the compound corresponding range. DMSO solvent without compound served as a control and final DMSO concentration was not to exceed 0.1% of total volume. After 24 hours of incubation at 37° C., 5% Co2 incubator, cells were collected and lysed with 60 ul of lysis buffer. Collected lysates were incubated for 30 min on ice and collect supernatant through centrifugation at 12,000 rpm for 10 min at 4° C. The protein in lysates were quantified with BCA protein quantification kit (Pierce, Cat #23227) following manufacture's protocol. Cell lysates were diluted into 1 ug/ul of concentration with lysis buffer. 20 ug of protein was loaded to each well of 4˜12% Bis-Tris gel (Invitrogen, Cat #NP0336BOX) with MOPS running buffer (Invitrogen, Cat #NP0001). The proteins were transferred from gel to membrane and incubated with primary antibody as followed at 4° C. overnight; CDK7 (CST, Cat #2090S) and β-actin (Santa Cruz, Cat #sc-47778) 1:20,000. The signals were developed and acquired with ImageQuant™ LAS 4000.

T3 sequence (Q00535 whole entry): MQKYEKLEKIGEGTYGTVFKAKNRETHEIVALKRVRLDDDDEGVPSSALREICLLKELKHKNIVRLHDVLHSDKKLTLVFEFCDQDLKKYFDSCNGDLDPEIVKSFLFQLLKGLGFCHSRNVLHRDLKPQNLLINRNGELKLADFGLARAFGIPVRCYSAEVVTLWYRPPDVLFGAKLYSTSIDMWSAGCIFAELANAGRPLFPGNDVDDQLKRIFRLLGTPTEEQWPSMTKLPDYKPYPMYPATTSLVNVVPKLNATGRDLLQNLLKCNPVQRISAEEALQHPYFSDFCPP
T3 sequence (Q15078 99-307 partner limits assumed): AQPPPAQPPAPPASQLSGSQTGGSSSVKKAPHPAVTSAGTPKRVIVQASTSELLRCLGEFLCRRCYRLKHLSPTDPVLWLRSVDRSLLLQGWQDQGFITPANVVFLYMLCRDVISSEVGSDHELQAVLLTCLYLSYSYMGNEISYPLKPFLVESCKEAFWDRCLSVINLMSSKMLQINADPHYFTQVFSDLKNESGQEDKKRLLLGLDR
T4 sequence (P50613 whole entry): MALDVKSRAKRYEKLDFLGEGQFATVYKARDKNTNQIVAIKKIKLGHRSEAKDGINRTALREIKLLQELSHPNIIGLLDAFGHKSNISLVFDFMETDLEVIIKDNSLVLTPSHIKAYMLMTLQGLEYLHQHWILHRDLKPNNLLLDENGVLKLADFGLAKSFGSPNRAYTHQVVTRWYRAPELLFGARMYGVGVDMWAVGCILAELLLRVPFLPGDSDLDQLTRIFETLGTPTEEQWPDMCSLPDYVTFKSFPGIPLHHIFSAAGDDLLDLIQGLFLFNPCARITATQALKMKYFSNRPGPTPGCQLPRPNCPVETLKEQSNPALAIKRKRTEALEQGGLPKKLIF
T4 sequence (P51946 whole entry partner): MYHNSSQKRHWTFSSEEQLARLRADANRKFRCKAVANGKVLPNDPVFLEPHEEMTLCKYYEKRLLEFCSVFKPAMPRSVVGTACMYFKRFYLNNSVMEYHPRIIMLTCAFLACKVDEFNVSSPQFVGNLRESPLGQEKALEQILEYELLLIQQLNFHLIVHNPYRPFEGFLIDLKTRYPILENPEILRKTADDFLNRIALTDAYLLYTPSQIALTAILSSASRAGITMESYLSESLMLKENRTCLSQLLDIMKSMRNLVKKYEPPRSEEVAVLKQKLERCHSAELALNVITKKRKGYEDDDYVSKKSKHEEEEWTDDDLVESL
T4 sequence (P51948 whole entry partner): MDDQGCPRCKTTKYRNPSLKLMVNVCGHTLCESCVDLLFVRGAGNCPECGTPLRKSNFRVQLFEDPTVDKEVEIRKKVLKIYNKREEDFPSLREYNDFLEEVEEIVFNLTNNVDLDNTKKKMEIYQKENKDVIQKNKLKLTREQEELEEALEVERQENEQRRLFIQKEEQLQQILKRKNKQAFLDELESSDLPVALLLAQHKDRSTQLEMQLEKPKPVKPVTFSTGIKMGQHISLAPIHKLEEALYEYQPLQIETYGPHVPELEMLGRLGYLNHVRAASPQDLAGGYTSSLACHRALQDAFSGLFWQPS
T1 sequence (P06493 whole entry): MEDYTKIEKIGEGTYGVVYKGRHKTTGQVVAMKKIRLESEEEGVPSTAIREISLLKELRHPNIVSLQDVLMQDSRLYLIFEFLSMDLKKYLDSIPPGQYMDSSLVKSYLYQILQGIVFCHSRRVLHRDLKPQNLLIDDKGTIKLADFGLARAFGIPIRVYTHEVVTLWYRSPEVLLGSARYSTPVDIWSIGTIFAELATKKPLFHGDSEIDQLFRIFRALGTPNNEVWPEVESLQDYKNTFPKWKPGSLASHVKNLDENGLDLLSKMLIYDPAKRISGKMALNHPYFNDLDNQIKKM
T1 sequence (P14635 whole entry partner): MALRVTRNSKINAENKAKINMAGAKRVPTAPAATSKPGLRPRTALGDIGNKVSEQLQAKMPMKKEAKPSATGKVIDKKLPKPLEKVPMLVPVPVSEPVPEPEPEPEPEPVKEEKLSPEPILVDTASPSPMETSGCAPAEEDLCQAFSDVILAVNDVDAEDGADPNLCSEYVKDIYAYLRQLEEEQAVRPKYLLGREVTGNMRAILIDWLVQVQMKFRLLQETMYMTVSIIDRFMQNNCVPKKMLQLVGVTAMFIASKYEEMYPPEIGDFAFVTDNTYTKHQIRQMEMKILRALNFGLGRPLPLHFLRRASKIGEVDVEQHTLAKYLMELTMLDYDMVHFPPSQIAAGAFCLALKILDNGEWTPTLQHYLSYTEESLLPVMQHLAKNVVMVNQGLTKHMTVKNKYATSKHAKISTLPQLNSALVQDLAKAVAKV
T5 sequence (P50613 whole entry): as the sequence (P50613 whole entry) above

CDK1/CDK7: Selectivity of CDK7 inhibition over CDK1 inhibition (CDK1) | IC50 (CDK1) | CDK2/CDK7: Selectivity of CDK7 inhibition over CDK2 inhibition (CDK2) | IC50 (CDK2) | CDK5/CDK7: Selectivity of CDK7 inhibition over CDK5 inhibition (CDK5) | IC50 (CDK5) | IC50 (CDK7/CycH/MNAT1) | DC50 (CDK7 protein) | SMILES
A (A indicates [fold] > 500) | > 1 µM | A (A indicates [fold] > 500) | > 1 µM | A (A indicates [fold] > 500) | > 1 µM | ≤ 0.1 µM | ≤ 0.1 µM | Cc1cc(C(C(=O)N2C[C@H](O)C[C@H]2C(=O)NCc2ccc(-c3scnc3C)cc2OCCOCCOCCNc2ccc3c(-c4ccccc4CNc4nc(O[C@@H]5CCCNC5)nc5c(C(C)C)cnn45)nccc3c2)C(C)C)on1 (some centres unmarked) [Compound 24]
A (A indicates [fold] > 500) | > 1 µM | A (A indicates [fold] > 500) | > 1 µM | A (A indicates [fold] > 500) | > 1 µM | ≤ 0.1 µM | – | CC(C)c1cnn2c(NCc3ccccc3-c3nccc4cc(NC(=O)/C=C/CN(C)CCOCCOCCOCCNC(=O)CNc5cccc6c5C(=O)N(C5CCC(=O)NC5=O)C6=O)ccc34)nc(N3CCC(N)CC3)nc12 (centres unmarked) [Compound 3]
A (A indicates [fold] > 500) | > 1 µM | A (A indicates [fold] > 500) | > 1 µM | A (A indicates [fold] > 500) | > 1 µM | ≤ 0.1 µM | – | CC(C)c1cnn2c(NCc3ccccc3-c3nccc4cc(N)ccc34)nc(O[C@@H]3CCCN(CCOCCOCCNC(=O)CNc4cccc5c4C(=O)N(C4CCC(=O)NC4=O)C5=O)C3)nc12 (some centres unmarked) [Compound 5]
A (A indicates [fold] > 500) | > 1 µM | C (C indicates [fold] ≤ 50) | > 1 µM | B (B indicates 50 < [fold] ≤ 500) | > 1 µM | 0.1 to 1 µM | – | C=C(F)C(=O)Nc1ccc2c(-c3ccccc3CNc3nc(NC[C@H]4CCN(CCOCCOCCNC(=O)CNc5cccc6c5C(=O)N(C5CCC(=O)NC5=O)C6=O)C[C@@H]4O)nc4c(C(C)C)cnn34)nccc2c1 (some centres unmarked) [Compound 4]
A (A indicates [fold] > 500) | > 1 µM | A (A indicates [fold] > 500) | > 1 µM | A (A indicates [fold] > 500) | > 1 µM | ≤ 0.1 µM | – | CC(C)c1cnn2c(NCc3ccccc3-c3nccc4cc(N)ccc34)nc(O[C@@H]3CCCN(CCOCCOCCOCCNC(=O)CNc4cccc5c4C(=O)N(C4CCC(=O)NC4=O)C5=O)C3)nc12 (some centres unmarked) [Compound 6]
A (A indicates [fold] > 500) | > 1 µM | A (A indicates [fold] > 500) | > 1 µM | A (A indicates [fold] > 500) | > 1 µM | ≤ 0.1 µM | – | CC(C)c1cnn2c(NCc3ccccc3-c3nccc4cc(NC(=O)/C=C/CN(C)CCOCCNC(=O)CNc5cccc6c5C(=O)N(C5CCC(=O)NC5=O)C6=O)ccc34)nc(N3CCC(N)CC3)nc12 (centres unmarked) [Compound 1]
A (A indicates [fold] > 500) | > 1 µM | A (A indicates [fold] > 500) | > 1 µM | A (A indicates [fold] > 500) | > 1 µM | ≤ 0.1 µM | – | Cc1ncsc1-c1ccc(CNC(=O)[C@@H]2C[C@@H](O)CN2C(=O)[C@@H](NC(=O)C2(F)CC2)C(C)(C)C)c(OCCOCCOCCOCCOCCOCCNc2ccc3c(-c4ccccc4CNc4nc(O[C@@H]5CCCNC5)nc5c(C(C)C)cnn45)nccc3c2)c1 [Compound 23]
B (B indicates 50 < [fold] ≤ 500) | > 1 µM | B (B indicates 50 < [fold] ≤ 500) | > 1 µM | B (B indicates 50 < [fold] ≤ 500) | > 1 µM | 0.1 to 1 µM | – | CC(C)c1cnn2c(NCc3ccccc3-c3nccc4cc(N5CCN(CC6CCN(c7cc8c(cc7F)C(=O)N(C7CCC(=O)NC7=O)C8=O)CC6)CC5)ccc34)nc(O[C@@H]3CCCNC3)nc12 (some centres unmarked) [Compound 35]
A (A indicates [fold] > 500) | > 1 µM | A (A indicates [fold] > 500) | > 1 µM | A (A indicates [fold] > 500) | > 1 µM | ≤ 0.1 µM | – | CN[C@@H](C)C(=O)N[C@H](C(=O)N1CCC[C@H]1c1nc(C(=O)c2cccc(OCCOCCOCCNc3ccc4c(-c5ccccc5CNc5nc(O[C@@H]6CCCNC6)nc6c(C(C)C)cnn56)nccc4c3)c2)cs1)C1CCCCC1 [Compound 18]
B (B indicates 50 < [fold] ≤ 500) | > 1 µM | B (B indicates 50 < [fold] ≤ 500) | > 1 µM | B (B indicates 50 < [fold] ≤ 500) | > 1 µM | ≤ 0.1 µM | – | Cc1ncsc1-c1ccc(CNC(=O)[C@@H]2C[C@@H](O)CN2C(=O)[C@@H](NC(=O)C2(F)CC2)C(C)(C)C)c(OCCN2CCC(N3CCC(CNc4ccc5c(-c6ccccc6CNc6nc(N[C@@H]7CCCNC7)nc7c(C(C)C)cnn67)nccc5c4)CC3)CC2)c1 [Compound 29]
A (A indicates [fold] > 500) | > 1 µM | A (A indicates [fold] > 500) | > 1 µM | A (A indicates [fold] > 500) | > 1 µM | ≤ 0.1 µM | – | CC(C)c1cnn2c(NCc3ccccc3-c3nccc4cc(NC(=O)/C=C/CN(C)CCOCCOCCNC(=O)CNc5cccc6c5C(=O)N(C5CCC(=O)NC5=O)C6=O)ccc34)nc(N3CCC(N)CC3)nc12 (centres unmarked) [Compound 2]
A (A indicates [fold] > 500) | > 1 µM | A (A indicates [fold] > 500) | > 1 µM | B (B indicates 50 < [fold] ≤ 500) | > 1 µM | ≤ 0.1 µM | – | CC(C)c1cnn2c(NCc3ccccc3-c3nccc4cc(NCCOCCOCCOCCNC(=O)CNc5cccc6c5C(=O)N(C5CCC(=O)NC5=O)C6=O)ccc34)nc(O[C@@H]3CCCNC3)nc12 (some centres unmarked) [Compound 8]
B (B indicates 50 < [fold] ≤ 500) | > 1 µM | B (B indicates 50 < [fold] ≤ 500) | > 1 µM | B (B indicates 50 < [fold] ≤ 500) | > 1 µM | ≤ 0.1 µM | – | CC(C)c1cnn2c(NCc3ccccc3-c3nccc4cc(N5CCC(CN6CCN(c7cc8c(cc7F)C(=O)N(C7CCC(=O)NC7=O)C8=O)CC6)CC5)ccc34)nc(O[C@@H]3CCCNC3)nc12 (some centres unmarked) [Compound 36]
